From patent publication US9249114B2, “Thiazole derivatives” (Merck Patent GmbH, priority 2011, dated 2016)

Assays:
IKKε = IKKε (Homo sapiens (Human), UniProt Q14164); test: IKKε kinase assay (384-well Flashplate); assay type: biochemical; details: 10 μM ATP, 2 hours at 30° C.; read-out: IKKε enzyme assay IC50
Procedure: Test for the Inhibition of IKKε
IKKε—Kinase Assay (IKKepsilon)
The kinase assay is performed either as 384-well Flashplate assay (for e.g. Topcount measurement). […] The reaction is stopped with 25 μl 200 mM EDTA. After 30 Min at room temperature the liquid is removed and each well washed thrice with 100 μl 0.9% sodium chloride solution. […] Radioactivity is measured with Topcount (PerkinElmer). Results (e.g. IC50-values) are calculated with program tools provided by the IT-department (e.g. AssayExplorer, Symyx).

[1] = target: TANK binding kinase (TBK1) (Homo sapiens (Human), UniProt Q9UHD2); test: TBK1 enzyme assay (384-well Flashplate kinase assay); assay type: biochemical; details: 10 μM ATP, 120 Min at 30° C.
Chain of TANK binding kinase (TBK1) (Q9UHD2 whole entry): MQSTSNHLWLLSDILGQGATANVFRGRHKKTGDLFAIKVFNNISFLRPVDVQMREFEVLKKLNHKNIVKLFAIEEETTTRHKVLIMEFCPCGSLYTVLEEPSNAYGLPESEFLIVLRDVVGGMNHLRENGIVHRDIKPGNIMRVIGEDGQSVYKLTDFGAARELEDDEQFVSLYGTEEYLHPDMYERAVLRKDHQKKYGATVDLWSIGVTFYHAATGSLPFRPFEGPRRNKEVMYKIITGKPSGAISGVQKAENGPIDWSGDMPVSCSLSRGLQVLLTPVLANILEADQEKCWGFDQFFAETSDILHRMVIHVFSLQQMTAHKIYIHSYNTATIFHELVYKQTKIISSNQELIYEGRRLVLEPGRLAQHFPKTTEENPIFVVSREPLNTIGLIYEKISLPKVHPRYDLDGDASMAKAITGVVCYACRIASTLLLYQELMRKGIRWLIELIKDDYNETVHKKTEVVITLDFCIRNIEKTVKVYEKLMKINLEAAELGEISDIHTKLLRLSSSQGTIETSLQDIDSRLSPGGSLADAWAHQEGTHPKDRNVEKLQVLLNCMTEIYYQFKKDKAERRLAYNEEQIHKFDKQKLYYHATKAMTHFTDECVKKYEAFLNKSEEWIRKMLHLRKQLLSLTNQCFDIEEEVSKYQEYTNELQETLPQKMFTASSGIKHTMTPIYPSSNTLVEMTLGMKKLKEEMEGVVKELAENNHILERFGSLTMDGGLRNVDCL
Procedure: Test for the Inhibition of TBK1
The kinase assay is performed as 384-well Flashplate assay (for e.g. Topcount measurement. 0.6 nM TANK binding kinase (TBK1), 800 nM biotinylated MELK-derived peptide (Biotin-Ah-Ah-[…]) SEQ ID NO: 2 and 10 μM ATP (spiked with 0.25 μCi ^33P-ATP/well) are incubated in a total volume of 50 μl (10 mM MOPS, 10 mM Mg-acetat, 0.1 mM EGTA, 1 mM DTT, 0.02% Brij35, 0.1% BSA, pH 7.5) with or without test compound for 120 Min at 30° C. The reaction is stopped with 25 μl 200 mM EDTA. After 30 Min at room temperature the liquid is removed and each well washed thrice with 100 μl 0.9% sodium chloride solution. Nonspecific reaction is determined in presence of 100 nM Staurosporine. Radioactivity is measured in a Topcount (PerkinElmer). Results (e.g. IC50-values) are calculated with program tools provided by the IT-department (e.g. AssayExplorer, Symyx).

Chain of IKKε (Q14164 whole entry): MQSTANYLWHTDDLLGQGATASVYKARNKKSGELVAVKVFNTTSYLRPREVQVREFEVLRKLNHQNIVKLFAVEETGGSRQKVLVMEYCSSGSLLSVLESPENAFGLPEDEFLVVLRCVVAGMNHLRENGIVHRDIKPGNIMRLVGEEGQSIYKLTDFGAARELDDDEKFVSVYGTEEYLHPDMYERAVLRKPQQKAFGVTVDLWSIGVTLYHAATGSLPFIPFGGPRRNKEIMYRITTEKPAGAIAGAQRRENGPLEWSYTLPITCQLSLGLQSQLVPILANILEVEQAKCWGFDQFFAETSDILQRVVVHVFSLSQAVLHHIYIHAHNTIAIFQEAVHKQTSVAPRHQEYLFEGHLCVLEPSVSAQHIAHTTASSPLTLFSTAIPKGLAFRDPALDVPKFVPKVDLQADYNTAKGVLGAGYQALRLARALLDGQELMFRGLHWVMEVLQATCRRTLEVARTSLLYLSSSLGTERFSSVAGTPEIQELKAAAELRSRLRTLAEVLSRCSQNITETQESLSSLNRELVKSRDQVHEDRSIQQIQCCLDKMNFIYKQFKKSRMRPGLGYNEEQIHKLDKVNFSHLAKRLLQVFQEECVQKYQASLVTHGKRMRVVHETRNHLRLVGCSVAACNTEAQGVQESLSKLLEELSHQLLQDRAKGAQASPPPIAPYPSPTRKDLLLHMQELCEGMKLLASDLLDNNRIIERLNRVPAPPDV

| SMILES | IC50 (IKKε) [µM] | IC50 [1] [µM] |
| --- | --- | --- |
| CN1CCN(Cc2ccc(C(=O)Nc3sc(-c4ccnc(F)c4)nc3C(N)=O)cc2)CC1 [Compound A6, 2-(2-fluoro-pyridin-4-yl)-5-[4-(4-methyl-piperazin-1-ylmethyl)-benzoylamino]-thiazole-4-carboxylic acid amide] | 0.54 | 0.63 |
| Cc1cc(-c2nc(C(N)=O)c(NC(=O)c3ccc(CN4CCN(C)CC4)cc3)s2)ccn1 [Compound A7, 5-[4-(4-methyl-piperazin-1-ylmethyl)-benzoylamino]-2-(2-methyl-pyridin-4-yl)-thiazole-4-carboxylic acid amide] | 0.39 | 0.41 |
| CN1CCN(Cc2ccc(C(=O)Nc3sc(-c4ccnc(C(F)(F)F)c4)nc3C(N)=O)cc2)CC1 [Compound A8, 5-[4-(4-methyl-piperazin-1-ylmethyl)-benzoylamino]-2-(2-trifluoromethyl-pyridin-4-yl)-thiazole-4-carboxylic acid amide] | 2.1 | 6.3 |
| CN1CCN(Cc2ccc(C(=O)Nc3sc(-c4ccnc(C#N)c4)nc3C(N)=O)cc2)CC1 [Compound A9, 2-(2-cyano-pyridin-4-yl)-5-[4-(4-methyl-piperazin-1-ylmethyl)-benzoylamino]-thiazole-4-carboxylic acid amide] | 0.74 | 2 |
| CN1CCN(Cc2ccc(Nc3sc(-c4ccncc4)nc3C(N)=O)cc2)CC1 [Compound A14, 5-[4-(4-methyl-piperazin-1-ylmethyl)-phenylamino]-2-pyridin-4-yl-thiazole-4-carboxylic acid amide] | 0.42 | 1.7 |
| Cc1cc(-c2nc(C(N)=O)c(NC(=O)c3ccc(CN4CCN(C)CC4)cc3)s2)cc(C)n1 [Compound A16, 2-(2,6-dimethyl-pyridin-4-yl)-5-[4-(4-methyl-piperazin-1-ylmethyl)-benzoylamino]-thiazole-4-carboxylic acid amide] | 3.8 | – |
| CN1CCN(Cc2ccc(C(=O)Nc3sc(-c4ccncc4C(F)(F)F)nc3C(N)=O)cc2)CC1 [Compound A17, 5-[4-(4-methyl-piperazin-1-ylmethyl)-benzoylamino]-2-(3-trifluoromethyl-pyridin-4-yl)-thiazole-4-carboxylic acid amide] | 0.14 | 1.4 |
| CN1CCN(Cc2ccc(C(=O)Nc3sc(-c4ccncc4Br)nc3C(N)=O)cc2)CC1 [Compound A18, 2-(3-bromo-pyridin-4-yl)-5-[4-(4-methyl-piperazin-1-ylmethyl)-benzoylamino]-thiazole-4-carboxylic acid amide] | 0.19 | 0.31 |
| CN1CCN(Cc2ccc(C(=O)Nc3sc(-c4ccncc4F)nc3C(N)=O)cc2)CC1 [Compound A19, 2-(3-fluoro-pyridin-4-yl)-5-[4-(4-methyl-piperazin-1-ylmethyl)-benzoylamino]-thiazole-4-carboxylic acid amide] | 0.28 | 0.37 |
| CN1CCN(Cc2ccc(C(=O)Nc3sc(-c4ccncc4Cl)nc3C(N)=O)cc2)CC1 [Compound A20, 2-(3-chloro-pyridin-4-yl)-5-[4-(4-methyl-piperazin-1-ylmethyl)-benzoylamino]-thiazole-4-carboxylic acid amide] | 0.63 | 0.64 |
| COc1cnccc1-c1nc(C(N)=O)c(NC(=O)c2ccc(CN3CCN(C)CC3)cc2)s1 [Compound A21, 2-(3-methoxy-pyridin-4-yl)-5-[4-(4-methyl-piperazin-1-ylmethyl)-benzoylamino]-thiazole-4-carboxylic acid amide] | 0.014 | 0.046 |
| Cc1cnccc1-c1nc(C(N)=O)c(NC(=O)c2ccc(CN3CCN(C)CC3)cc2)s1 [Compound A22, 2-(3-methyl-pyridin-4-yl)-5-[4-(4-methyl-piperazin-1-ylmethyl)-benzoylamino]-thiazole-4-carboxylic acid amide] | 0.3 | 0.35 |
| NC(=O)c1nc(-c2ccncc2)sc1NC(=O)c1ccc(CN2CCNCC2)cc1 [Compound A24, 5-(4-piperazin-1-ylmethyl-benzoylamino)-2-pyridin-4-yl-thiazole-4-carboxylic acid amide] | 0.26 | 0.095 |
| CN1CCC(Cc2ccc(C(=O)Nc3sc(-c4ccncc4)nc3C(N)=O)cc2)CC1 [Compound A26, 5-[4-(1-methyl-piperidin-4-ylmethyl)-benzoylamino]-2-pyridin-4-yl-thiazole-4-carboxylic acid amide] | 0.031 | 0.1 |
| CC(=O)N1CCN(Cc2ccc(C(=O)Nc3sc(-c4ccncc4)nc3C(N)=O)cc2)CC1 [Compound A27, 5-[4-(4-acetyl-piperazin-1-ylmethyl)-benzoylamino]-2-pyridin-4-yl-thiazole-4-carboxylic acid amide] | 0.1 | 0.14 |
| CN1CCN(Cc2ccc(C(=O)Nc3sc(-c4ccncc4)nc3C(N)=O)cc2)CC1 [Compound A37, 5-[4-(4-methyl-piperazin-1-ylmethyl)-benzoylamino]-2-pyridin-4-yl-thiazole-4-carboxylic acid amide] | 0.2 | 0.71 |

| SMILES | IC50 (IKKε) [µM] | IC50 [1] [µM] |
| --- | --- | --- |
| CN(C)Cc1ccc(C(=O)Nc2sc(-c3ccncc3)nc2C(N)=O)cc1 [Compound A40, 5-(4-dimethylaminomethyl-benzoylamino)-2-pyridin-4-yl-thiazole-4-carboxylic acid amide] | 0.28 | 1.25 |
| COc1ccc(C(=O)Nc2sc(-c3ccncc3)nc2C(N)=O)cc1OC [Compound A41, 5-(3,4-dimethoxy-benzoylamino)-2-pyridin-4-yl-thiazole-4-carboxylic acid amide] | – | 1.5 |
| NC(=O)c1nc(-c2ccncc2)sc1NC(=O)c1cn[nH]c1 [Compound A42, 5-[(1H-pyrazole-4-carbonyl)-amino]-2-pyridin-4-yl-thiazole-4-carboxylic acid amide] | 0.73 | 2.7 |
| NC(=O)c1nc(-c2ccncc2)sc1NC(=O)c1ccc(N2CCOCC2)nc1 [Compound A43, N-(4-carbamoyl-2-pyridin-4-yl-thiazol-5-yl)-6-morpholin-4-yl-nicotinamide] | 2 | 7.3 |
| NC(=O)c1nc(-c2ccncc2)sc1NC(=O)c1cnn(CC2CCNCC2)c1 [Compound A44, 5-[(1-piperidin-4-ylmethyl-1H-pyrazole-4-carbonyl)-amino]-2-pyridin-4-yl-thiazole-4-carboxylic acid amide] | – | 7.9 |
| CN1CCN(Cc2ccc(C(=O)Nc3sc(-c4ccncc4)nc3C#N)cc2)CC1 [Compound A45, N-(4-cyano-2-pyridin-4-yl-thiazol-5-yl)-4-(4-methyl-piperazin-1-ylmethyl)-benzamide] | – | 8.2 |
| Cc1ccc(C(=O)Nc2sc(-c3ccncc3)nc2C(N)=O)cc1 [Compound A55, 5-(4-methyl-benzoylamino)-2-pyridin-4-yl-thiazole-4-carboxylic acid amide] | 5.3 | 10 |
| NC(=O)c1nc(-c2ccncc2)sc1NC(=O)c1ccccc1 [Compound A56, 5-benzoylamino-2-pyridin-4-yl-thiazole-4-carboxylic acid amide] | – | 3.6 |
| CN(C)c1ccc(C(=O)Nc2sc(-c3ccncc3)nc2C(N)=O)cc1 [Compound A57, 5-{[4-(dimethylamino)benzoyl]amino}-2-pyridin-4-yl-1,3-thiazole-4-carboxamide] | 1.6 | 1.8 |
| NC(=O)c1nc(-c2ccncc2)sc1NC(=O)c1ccc(N)cc1 [Compound A58, 5-[(4-aminobenzoyl)amino]-2-pyridin-4-yl-1,3-thiazole-4-carboxamide] | 0.18 | 0.11 |
| Cn1cccc1C(=O)Nc1sc(-c2ccncc2)nc1C(N)=O [Compound A59, 5-{[(1-methyl-1H-pyrrol-2-yl)carbonyl]amino}-2-pyridin-4-yl-1,3-thiazole-4-carboxamide] | 1.2 | 0.4 |
| NC(=O)c1nc(-c2ccncc2)sc1NC(=O)c1ccco1 [Compound A60, 5-(2-furoylamino)-2-pyridin-4-yl-1,3-thiazole-4-carboxamide] | 6.3 | 3.7 |
| NC(=O)c1nc(-c2ccncc2)sc1NC(=O)c1ccc[nH]1 [Compound A61, 2-pyridin-4-yl-5-[(1H-pyrrol-2-ylcarbonyl)amino]-1,3-thiazole-4-carboxamide] | 0.14 | 0.12 |
| NC(=O)c1nc(-c2ccncc2)sc1NC(=O)c1cccs1 [Compound A62, 2-pyridin-4-yl-5-[(2-thienylcarbonyl)amino]-1,3-thiazole-4-carboxamide] | – | 2 |
| NC(=O)c1nc(-c2ccncc2)sc1NC(=O)c1cc[nH]n1 [Compound A63, 5-[(1H-pyrazol-3-ylcarbonyl)amino]-2-pyridin-4-yl-1,3-thiazole-4-carboxamide] | 7.3 | 2.7 |
| NC(=O)c1nc(-c2ccncc2)sc1NC(=O)c1ccoc1 [Compound A64, 5-(3-furoylamino)-2-pyridin-4-yl-1,3-thiazole-4-carboxamide] | – | 4.6 |
